Results: patent EP4778924A1 (Huons Co., Ltd., priority 2023, dated 2025)
Entries after “also recorded” stand apart in the source; their conditions may differ.

Experiments:
[1] = tested on: Pylorus-Ligated Rats; assay: Inhibitory activity on basal gastric acid secretion in pylorus-ligated rats (Shay's rat model); format: in vivo, male Sprague Dawley (SD) rats; conditions: for inhibition in vivo at 2 mg/kg: Rattus norvegicus, po, read-out: GERD (rat/mpk); for inhibitory activity against basal gastric acid secretion: result in words, pyloric-ligated rats
Method: Specifically, male Sprague Dawley (SD) rats (weighing 180-220 g) were fasted for 24 hours with only water, and then randomly assigned to groups (n=4-5) after measuring body weight. The negative control group was orally administered 10% dimethylsulfoxide (DMSO)/10% Cremophor EL/80% D.W. at 2 mL/kg, and the test group was orally administered the test compound at 2 mg/kg/2 mL. One hour after administration, the rats' abdominal cavity was incised under isoflurane anesthesia, the stomach was exposed, and the pylorus was ligated. Three hours after ligation, the test animals were sacrificed and the stomach contents were collected by laparotomy again. The contents were centrifuged (3,000 rpm, 10 min), and only the supernatant was separated to obtain gastric juice. Afterwards, gastric fluid volume measurement, gastric fluid pH measurement, NaOH titration, and total gastric acid secretion calculation (gastric fluid volume × 0.1 N NaOH titer × 100) were sequentially performed.

[2] = molecular target: T1, Proton Pump (H^+,K^+-ATPase) (Sus scrofa, UniProt P19156); assay: Inhibitory activity on proton pump (H+,K+-ATPase) activity, porcine gastric vesicles, malachite green readout; format: biochemical; conditions: for IC50: porcine gastric vesicles, pH 6.5, 8 mM KCl, 0.2 mM ATP; for inhibitory activity against proton pump activity: result in words
T1 construct: gastric vesicles were isolated from porcine stomachs; from tissue; host or cells: porcine stomach (gastric vesicles)
T1 sequence (P19156 2-1034 limits assumed): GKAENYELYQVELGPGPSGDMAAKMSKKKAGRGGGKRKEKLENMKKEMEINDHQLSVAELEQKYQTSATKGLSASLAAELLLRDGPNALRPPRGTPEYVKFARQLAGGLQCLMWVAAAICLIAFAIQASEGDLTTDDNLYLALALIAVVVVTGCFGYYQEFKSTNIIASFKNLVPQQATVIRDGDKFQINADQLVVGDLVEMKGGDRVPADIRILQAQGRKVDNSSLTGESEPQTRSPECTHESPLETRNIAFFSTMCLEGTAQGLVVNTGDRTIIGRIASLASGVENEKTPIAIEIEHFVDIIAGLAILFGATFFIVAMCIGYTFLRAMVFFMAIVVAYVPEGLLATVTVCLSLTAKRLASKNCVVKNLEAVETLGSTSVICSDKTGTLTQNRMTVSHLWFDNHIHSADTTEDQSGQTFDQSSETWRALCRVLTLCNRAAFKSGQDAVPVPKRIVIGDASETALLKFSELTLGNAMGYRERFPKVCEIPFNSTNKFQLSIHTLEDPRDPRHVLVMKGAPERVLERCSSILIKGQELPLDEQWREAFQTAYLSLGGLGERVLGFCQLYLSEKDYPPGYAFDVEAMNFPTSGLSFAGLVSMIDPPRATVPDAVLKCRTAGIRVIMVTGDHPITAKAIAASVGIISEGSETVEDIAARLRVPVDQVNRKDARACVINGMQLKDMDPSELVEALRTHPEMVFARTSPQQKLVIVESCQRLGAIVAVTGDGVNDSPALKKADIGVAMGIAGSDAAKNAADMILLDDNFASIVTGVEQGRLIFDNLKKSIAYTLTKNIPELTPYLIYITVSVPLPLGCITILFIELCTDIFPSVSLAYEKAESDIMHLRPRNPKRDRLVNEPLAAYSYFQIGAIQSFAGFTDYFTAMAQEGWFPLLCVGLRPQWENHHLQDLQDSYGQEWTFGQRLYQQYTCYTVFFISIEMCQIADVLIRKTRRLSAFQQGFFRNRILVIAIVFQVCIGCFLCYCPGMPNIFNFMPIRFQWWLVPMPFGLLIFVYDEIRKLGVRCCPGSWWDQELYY
T1 sequence (P18434 whole entry partner): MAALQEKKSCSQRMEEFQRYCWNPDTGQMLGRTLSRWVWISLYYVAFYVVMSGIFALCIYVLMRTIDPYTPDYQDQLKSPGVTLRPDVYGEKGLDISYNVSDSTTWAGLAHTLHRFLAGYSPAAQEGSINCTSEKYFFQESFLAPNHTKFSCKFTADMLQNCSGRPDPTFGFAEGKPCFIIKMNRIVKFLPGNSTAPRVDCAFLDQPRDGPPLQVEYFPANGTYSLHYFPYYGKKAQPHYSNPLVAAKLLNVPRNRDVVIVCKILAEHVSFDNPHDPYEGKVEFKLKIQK
Procedure, shortened: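 Porcine gastric vesicles (100 ng) preincubated 30 min at 37°C with […] valinomycin and compound (0.1% DMSO final) in 50 mM Tris-HEPES, 5 mM MgCl2, 8 mM KCl, pH 6.5, then 0.2 mM ATP for 20 min at 37°C. Released phosphate measured by malachite green at 620 nm; IC50 via nonlinear regression of % inhibition.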

| IC50 [2] [nM] | inhibitory activity against proton pump activity [2] | SMILES | inhibition in vivo at 2 mg/kg [1] [%] | inhibitory activity against basal gastric acid secretion ([1]; 2 mg/kg oral) | GERD (rat/mpk) ([1]; % inhibitory activity on total gastric acid secretion, 2 mg/kg oral, pylorus ligated 1 h after administration, stomach contents collected 3 h after ligation) | inhibitory activity against basal gastric acid secretion ([1]; 2 mg/kg oral, citrate, 2 mg/kg) |
| --- | --- | --- | --- | --- | --- | --- |
| < 50 | excellent inhibitory properties | CC(=O)Nc1cc(NCc2c(C)cccc2C)c2nc(C)c(C)n2c1 [Example 4, N-(8-((2,6-dimethylbenzyl)amino)-2,3-dimethylimidazo[1,2-a]pyridin-6-yl)acetamide] | ≥ 90 | inhibitory activity | – | – |
| < 50 | excellent inhibitory properties | COCC(=O)Nc1cc(NCc2c(C)cccc2C)c2nc(C)c(C)n2c1 [Example 15, N-(8-((2,6-dimethylbenzyl)amino)-2,3-dimethylimidazo[1,2-a]pyridin-6-yl)-2-methoxyacetamide] | ≥ 90 | inhibitory activity | – | – |
| < 50 | excellent inhibitory properties | CC(=O)Nc1cc(NCc2c(C)cc(F)cc2C)c2nc(C)c(C)n2c1 [Example 21, N-(8-((4-fluoro-2,6-dimethylbenzyl)amino)-2,3-dimethylimidazo[1,2-a]pyridin-6-yl)acetamide] | ≥ 90 | inhibitory activity | – | – |
| < 50 | excellent inhibitory properties | Cc1cccc(C)c1CNc1cc(NC(=O)CO)cn2c(C)c(C)nc12 [Example 26, N-(8-((2,6-dimethylbenzyl)amino)-2,3-dimethylimidazo[1,2-a]pyridin-6-yl)-2-hydroxyacetamide] | ≥ 90 | inhibitory activity | – | – |
| – | – | CC(=O)Nc1cc(NCc2c(C)cc(F)cc2C)c2nc(C)c(C)n2c1.Cl [Example 45, N-(8-((4-fluoro-2,6-dimethylbenzyl)amino)-2,3-dimethylimidazo[1,2-a]pyridin-6-yl)acetamide hydrochloride] | – | inhibitory activity | A (A≥90%) | – |
| < 50 | excellent inhibitory properties | Cc1cccc(C)c1CNc1cc(N2C(=O)CNC2=O)cn2c(C)c(C)nc12 [Example 60, 3-(8-((2,6-dimethylbenzyl)amino)-2,3-dimethylimidazo[1,2-a]pyridin-6-yl)imidazolidine-2,4-dione] | ≥ 90 | inhibitory activity | – | – |
| < 50 | – | Cc1cc(F)cc(C)c1CNc1cc(NC(=O)CO)cn2c(C)c(C)nc12.O=C(O)CC(O)(CC(=O)O)C(=O)O [Example 86, N-(8-((4-fluoro-2,6-dimethylbenzyl)amino)-2,3-dimethylimidazo[1,2-a]pyridin-6-yl)-2-hydroxyacetamide citrate] | ≥ 90 | inhibitory activity | – | – |
| < 50 | – | COCC(=O)Nc1cc(NCc2c(C)cc(F)cc2C)c2nc(C)c(C)n2c1.O=C(O)CC(O)(CC(=O)O)C(=O)O [Example 100, N-(8-((4-fluoro-2,6-dimethylbenzyl)amino)-2,3-dimethylimidazo[1,2-a]pyridin-6-yl)-2-methoxyacetamide citrate] | ≥ 90 | inhibitory activity | – | – |
| < 50 | – | Cc1cc(F)cc(C)c1CNc1cc(NC(=O)CCO)cn2c(C)c(C)nc12.O=C(O)CC(O)(CC(=O)O)C(=O)O [Example 101, N-(8-((4-fluoro-2,6-dimethylbenzyl)amino)-2,3-dimethylimidazo[1,2-a]pyridin-6-yl)-3-hydroxypropanamide citrate] | 70 to 80 | – | – | inhibitory activity; also recorded: somewhat reduced |
| < 50 | – | Cc1cccc(C)c1CNc1cc(NC(=O)CCO)cn2c(C)c(C)nc12.O=C(O)CC(O)(CC(=O)O)C(=O)O [Example 102, N-(8-((2,6-dimethylbenzyl)amino)-2,3-dimethylimidazo[1,2-a]pyridin-6-yl)-3-hydroxypropanamide citrate] | ≥ 90 | inhibitory activity | – | – |
